# Source: patent EP3722296B1, “DIHYDRONAPHTHYRIDINES AND RELATED COMPOUNDS USEFUL AS KINASE INHIBITORS FOR THE TREATMENT OF PROLIFERATIVE DISEASES” (Deciphera Pharmaceuticals, LLC, priority 2012, dated 2013)
# What was measured:
# Phospho-KIT (Tyr719) [1] = assay: GIST48 KIT Western Blot; assay type: cell-based; conditions: GIST48 cells, 4 hours, serum-free medium; read-out: pKIT suppression by western blot analysi GIST48
# Summary of the method: (§1)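 Phospho-KIT (Tyr719) was immunoblotted on PVDF and imaged in fluorescence mode after ECL Plus, with stripping and reprobing for total KIT. IC50 values were derived from the blot signals.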
# c-KIT D816V kinase = biological target: T1, c-KIT D816V kinase (Homo sapiens, UniProt P10721, D816V); assay: c-KIT D816V kinase Assay; assay type: biochemical; conditions: enzymatic assay, ATP 200 uM
# T1 construct: residues T544-V976 with N-terminal GST fusion; purchased deCODE Biostructures
# T1 sequence (P10721 544-976 D816V): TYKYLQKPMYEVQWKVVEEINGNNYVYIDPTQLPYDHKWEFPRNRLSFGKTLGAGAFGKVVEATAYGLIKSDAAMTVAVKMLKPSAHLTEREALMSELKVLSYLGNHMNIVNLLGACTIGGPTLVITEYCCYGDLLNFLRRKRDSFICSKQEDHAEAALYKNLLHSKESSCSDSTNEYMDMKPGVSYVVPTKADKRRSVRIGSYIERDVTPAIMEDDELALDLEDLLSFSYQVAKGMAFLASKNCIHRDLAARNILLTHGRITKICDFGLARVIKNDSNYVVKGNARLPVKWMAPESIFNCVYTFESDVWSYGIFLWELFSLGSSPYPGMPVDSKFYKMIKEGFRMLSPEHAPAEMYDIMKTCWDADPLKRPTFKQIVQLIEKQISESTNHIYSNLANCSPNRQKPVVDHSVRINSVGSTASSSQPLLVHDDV
# Summary of the method: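 Coupled assay in which NADH oxidation was tracked as decreasing absorbance at 340 nm, continuously for 5 hours at 30 °C after adding serially diluted compound. Enzyme: cKit residues T544-V976 with N-terminal tag, GST fusion and TEV cleavage site.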
# c-KIT D816H kinase = biological target: T2, c-KIT D816H kinase (Homo sapiens, UniProt P10721, D816H); assay: c-KIT D816H Kinase Assay; assay type: biochemical; conditions: enzymatic assay, ATP 200 µM
# T2 construct: The construct contains residues T544-V976 of cKit; GST (N); TEV cleavage site (internal); purchased deCODE Biostructures
# T2 sequence (P10721 544-976 D816H): as the sequence (P10721 544-976 D816V) above, with V273H counted along it
# Summary of the method: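 Coupled spectrophotometric assay following NADH oxidation as absorbance decrease at 340 nm, monitored continuously for 6 hours at 30 °C after adding serially diluted compound. Enzyme: mutant cKit construct with N-terminal tag, GST fusion and TEV cleavage site.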
# c-KIT kinase = c-KIT kinase (Homo sapiens, UniProt P10721); assay: c-KIT kinase Assay; assay type: biochemical; set-up: cKIT residues T544-V976; GST (N); TEV cleavage site (internal); purchased deCODE Biostructures; conditions: enzymatic assay, ATP 200 µM; read-out: KIT (wt) IC50
# c-KIT kinase, sequence (P10721 544-976): as the sequence (P10721 544-976 D816V) above, with V273D counted along it
# Summary of the method: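 Activity of wild-type human c-KIT kinase was followed as NADH oxidation, read as falling absorbance at 340 nm on a Synergy 2 plate reader (BioTeK) for 2 hours at 30 °C. Rates from the 0 to 1 h window were compared with an uninhibited control to give percent inhibition. IC50 values were fitted in GraphPad Prism across a range of inhibitor concentrations.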
# Phospho-KIT (Tyr719) [2] = biological target: T3, Phospho-KIT (Tyr719) (Homo sapiens, UniProt P10721, K642E); assay: GIST882 KIT Western Blot; assay type: cell-based; conditions: GIST882 cells, 4 hours, serum-free medium; read-out: pKIT suppression by western blot analysi GIST 882
# T3 construct: endogenous in cells; host or cells: GIST882
# T3 sequence (P10721 26-976 K642E): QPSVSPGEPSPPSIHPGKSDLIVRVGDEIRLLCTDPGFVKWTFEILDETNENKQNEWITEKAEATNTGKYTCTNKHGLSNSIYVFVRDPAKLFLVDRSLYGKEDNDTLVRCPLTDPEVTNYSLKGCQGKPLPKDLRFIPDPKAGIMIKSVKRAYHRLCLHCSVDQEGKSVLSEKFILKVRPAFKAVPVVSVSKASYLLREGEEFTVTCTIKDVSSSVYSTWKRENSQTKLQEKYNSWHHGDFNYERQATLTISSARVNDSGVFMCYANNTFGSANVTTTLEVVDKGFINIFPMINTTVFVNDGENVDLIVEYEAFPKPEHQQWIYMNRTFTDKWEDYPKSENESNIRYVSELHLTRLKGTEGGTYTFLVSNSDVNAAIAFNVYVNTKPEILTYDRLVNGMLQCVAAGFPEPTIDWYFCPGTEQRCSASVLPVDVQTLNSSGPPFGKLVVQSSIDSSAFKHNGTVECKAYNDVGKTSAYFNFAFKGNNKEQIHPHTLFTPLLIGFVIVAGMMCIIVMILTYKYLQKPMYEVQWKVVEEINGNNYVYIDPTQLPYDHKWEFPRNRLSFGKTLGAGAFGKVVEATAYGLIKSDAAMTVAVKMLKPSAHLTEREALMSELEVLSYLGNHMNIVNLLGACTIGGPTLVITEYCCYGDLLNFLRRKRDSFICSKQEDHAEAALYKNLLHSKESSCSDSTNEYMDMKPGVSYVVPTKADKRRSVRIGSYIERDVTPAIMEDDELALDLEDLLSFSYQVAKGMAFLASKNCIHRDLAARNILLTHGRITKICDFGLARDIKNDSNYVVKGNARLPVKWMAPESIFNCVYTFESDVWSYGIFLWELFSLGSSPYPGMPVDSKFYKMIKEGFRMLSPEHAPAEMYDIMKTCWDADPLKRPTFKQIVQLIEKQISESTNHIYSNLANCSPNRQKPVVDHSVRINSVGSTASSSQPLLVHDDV
# Summary of the method: as §1
# c-KIT V654A kinase = biological target: T4, c-KIT V654A kinase (Homo sapiens, UniProt P10721, V654A); assay: c-KIT V654A Kinase Assay; assay type: biochemical; conditions: enzymatic assay, ATP 200 µM
# T4 construct: residues T544-V976 with N-terminal GST fusion; purchased deCODE Biostructures
# T4 sequence (P10721 544-976 V654A): as the sequence (P10721 544-976 D816V) above, with V111A, V273D counted along it
# Summary of the method: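 Construct: cKIT residues T544–V976 with N-terminal tag, GST fusion and TEV site. Reaction started by adding serially diluted compound to the enzyme mixture; NADH oxidation, coupled to kinase turnover, followed as the decrease in A340 for 6 h at 30 °C.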
# c-KIT T670I kinase = biological target: T5, c-KIT T670I kinase (Homo sapiens, UniProt P10721, T670I); assay: c-KIT T670I kinase assay; assay type: biochemical; conditions: enzymatic assay
# T5 construct: The construct contains residues T544-V976 of cKit; GST (N); TEV cleavage site (internal); purchased deCODE Biostructures
# T5 sequence (P10721 544-976 T670I): as the sequence (P10721 544-976 D816V) above, with T127I, V273D counted along it
# Summary of the method: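 Coupled spectrophotometric assay following NADH oxidation as absorbance decrease at 340 nm, monitored continuously for 5 h at 30 °C after adding serially diluted compound. Enzyme is a cKit construct with N-terminal tag, GST fusion and TEV site, carrying the T670I mutation.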
IC50 (Phospho-KIT (Tyr719) [1]) [nM],IC50 (c-KIT D816V kinase) [nM],IC50 (c-KIT D816H kinase) [nM],IC50 (c-KIT kinase) [nM],IC50 (Phospho-KIT (Tyr719) [2]) [nM],IC50 (c-KIT V654A kinase) [nM],IC50 (c-KIT T670I kinase) [nM],Structure (SMILES)
10 to 100,10 to 100,< 10,< 10,10 to 100,10 to 100,10 to 100,"CCn1c(=O)c(-c2cc(NC(=O)Nc3cccc(F)c3)c(F)cc2C)cc2cnc(NC)cc21 [Example 44, 1-(5-(1-ethyl-7-(methylamino)-2-oxo-1,2-dihydro-1,6-naphthyridin-3-yl)-2-fluoro-4-methylphenyl)-3-(3-fluorophenyl)urea]"
100 to 1000,10 to 100,10 to 100,< 10,10 to 100,10 to 100,10 to 100,"CCn1c(=O)c(-c2cc(NC(=O)Nc3cccc(F)c3)c(F)cc2Br)cc2cnc(NC)cc21 [Example 50, 1-(4-bromo-5-(1-ethyl-7-(methylamino)-2-oxo-1,2-dihydro-1,6-naphthyridin-3-yl)-2-fluorophenyl)-3-(3-fluorophenyl)urea]"
10 to 100,< 10,< 10,< 10,10 to 100,10 to 100,10 to 100,"CCn1c(=O)c(-c2cc(NC(=O)Nc3ccccc3)c(F)cc2Cl)cc2cnc(NC(C)=O)cc21 [Example 54, 1-(5-(7-acetamido-1-ethyl-2-oxo-1,2-dihydro-1,6-naphthyridin-3-yl)-4-chloro-2-fluorophenyl)-3-phenylurea]"
> 1000,10 to 100,< 10,10 to 100,10 to 100,10 to 100,10 to 100,"CCn1c(=O)c(-c2cc(NC(=O)Nc3cc(F)cc(F)c3)c(F)cc2Cl)cc2cnc(NC)cc21 [Example 55, 1-(4-chloro-5-(1-ethyl-7-(methylamino)-2-oxo-1,2-dihydro-1,6-naphthyridin-3-yl)-2-fluorophenyl)-3-(3,5-difluorophenyl)urea]"
100 to 1000,100 to 1000,10 to 100,< 10,100 to 1000,10 to 100,< 10,"CCn1c(=O)c(-c2cc(NC(=O)Nc3ccccc3)c(F)cc2Br)cc2cnc(N)cc21 [Example 57, 1-(5-(7-amino-1-ethyl-2-oxo-1,2-dihydro-1,6-naphthyridin-3-yl)-4-bromo-2-fluorophenyl)-3-phenylurea]"
100 to 1000,10 to 100,< 10,< 10,100 to 1000,< 10,10 to 100,"CCn1c(=O)c(-c2cc(NC(=O)Nc3cccc(F)c3)c(F)cc2C)cc2cnc(N)cc21 [Example 58, 1-(5-(7-amino-1-ethyl-2-oxo-1,2-dihydro-1,6-naphthyridin-3-yl)-2-fluoro-4-methylphenyl)-3-(3-fluorophenyl)urea]"
10 to 100,10 to 100,10 to 100,10 to 100,10 to 100,10 to 100,10 to 100,"CCn1c(=O)c(-c2cc(NC(=O)Nc3csc4ccccc34)c(F)cc2C)cc2cnc(NC)cc21 [Example 59, 1-(benzo[b]thiophen-3-yl)-3-(5-(1-ethyl-7-(methylamino)-2-oxo-1,2-dihydro-1,6-naphthyridin-3-yl)-2-fluoro-4-methylphenyl)urea]"
< 10,< 10,< 10,10 to 100,10 to 100,10 to 100,< 10,"CCn1c(=O)c(-c2cc(NC(=O)Nc3cc(F)cc(F)c3)c(F)cc2Cl)cc2cnc(NC(C)=O)cc21 [Example 67, N-(3-(2-chloro-5-(3-(3,5-difluorophenyl)ureido)-4-fluorophenyl)-1-ethyl-2-oxo-1,2-dihydro-1,6-naphthyridin-7-yl)acetamide]"
